ChEMBL document CHEMBL5465560, “Selectivity Literature for EUbOPEN Chemogenomic Library” (2024)

Columns and labels:
[1] = target: T1, Cyclin-dependent kinase-like 5 (Homo sapiens) (UniProt O76039); conditions: at 10 µM
T1 sequence (whole entry): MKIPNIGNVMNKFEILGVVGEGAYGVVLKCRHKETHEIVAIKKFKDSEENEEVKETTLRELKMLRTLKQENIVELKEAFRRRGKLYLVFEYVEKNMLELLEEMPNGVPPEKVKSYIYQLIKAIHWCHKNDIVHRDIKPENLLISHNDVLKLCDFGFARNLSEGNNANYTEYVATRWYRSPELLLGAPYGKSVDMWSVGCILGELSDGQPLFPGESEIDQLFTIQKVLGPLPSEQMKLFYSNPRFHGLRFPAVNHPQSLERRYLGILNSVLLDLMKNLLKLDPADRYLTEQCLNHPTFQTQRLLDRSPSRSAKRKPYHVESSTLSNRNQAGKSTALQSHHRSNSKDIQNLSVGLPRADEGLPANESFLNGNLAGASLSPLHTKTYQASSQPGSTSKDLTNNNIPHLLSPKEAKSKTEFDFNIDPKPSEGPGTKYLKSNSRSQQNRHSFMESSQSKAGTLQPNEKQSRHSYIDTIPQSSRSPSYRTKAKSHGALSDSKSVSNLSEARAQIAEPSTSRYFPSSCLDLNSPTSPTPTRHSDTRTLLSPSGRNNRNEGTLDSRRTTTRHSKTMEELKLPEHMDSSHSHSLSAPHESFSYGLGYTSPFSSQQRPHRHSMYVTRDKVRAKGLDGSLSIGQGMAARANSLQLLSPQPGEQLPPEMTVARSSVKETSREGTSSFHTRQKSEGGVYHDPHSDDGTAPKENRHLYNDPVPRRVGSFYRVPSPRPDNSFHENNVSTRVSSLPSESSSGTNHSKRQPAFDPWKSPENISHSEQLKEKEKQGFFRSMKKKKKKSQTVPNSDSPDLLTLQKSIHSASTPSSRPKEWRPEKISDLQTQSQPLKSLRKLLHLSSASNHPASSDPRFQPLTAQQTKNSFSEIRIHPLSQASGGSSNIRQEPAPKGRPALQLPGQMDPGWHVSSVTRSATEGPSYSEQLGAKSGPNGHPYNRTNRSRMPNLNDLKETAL

[2] = target: Tyrosine-protein kinase CSK (Homo sapiens) (UniProt P41240); assay: Selectivity interaction (Kinase screening (Upstate/Millipore)) EUB0000604a CSK
[3] = target: Dual specificity mitogen-activated protein kinase kinase 1 (Homo sapiens, UniProt Q02750); assay: Selectivity interaction (KinomeScan (DiscoverX)) EUB0001049a MAP2K1; conditions: at 1 µM
[4] = target: Cyclin-dependent kinase 7 (Homo sapiens, UniProt P50613); assay: Selectivity interaction (KinomeScan (DiscoverX)) EUB0001049a CDK7; conditions: at 1 µM
[5] = target: Activin receptor type-1-like (Homo sapiens) (UniProt P37023); assay: Selectivity interaction (LanthaScreen Eu Kinase Binding Assay) EUB0001632a ACVRL1; conditions: at 10 µM
[6] = target: Platelet-derived growth factor receptor alpha (Homo sapiens, UniProt P16234); assay: Selectivity interaction (KinomeScan (DiscoverX)) EUB0000695a PDGFRA; conditions: at 100 nM
[7] = target: T2, Peripheral plasma membrane protein CASK (Homo sapiens) (UniProt O14936); assay: Selectivity interaction (KinomeScan (DiscoverX)) EUB0000045b CASK
T2 sequence (whole entry): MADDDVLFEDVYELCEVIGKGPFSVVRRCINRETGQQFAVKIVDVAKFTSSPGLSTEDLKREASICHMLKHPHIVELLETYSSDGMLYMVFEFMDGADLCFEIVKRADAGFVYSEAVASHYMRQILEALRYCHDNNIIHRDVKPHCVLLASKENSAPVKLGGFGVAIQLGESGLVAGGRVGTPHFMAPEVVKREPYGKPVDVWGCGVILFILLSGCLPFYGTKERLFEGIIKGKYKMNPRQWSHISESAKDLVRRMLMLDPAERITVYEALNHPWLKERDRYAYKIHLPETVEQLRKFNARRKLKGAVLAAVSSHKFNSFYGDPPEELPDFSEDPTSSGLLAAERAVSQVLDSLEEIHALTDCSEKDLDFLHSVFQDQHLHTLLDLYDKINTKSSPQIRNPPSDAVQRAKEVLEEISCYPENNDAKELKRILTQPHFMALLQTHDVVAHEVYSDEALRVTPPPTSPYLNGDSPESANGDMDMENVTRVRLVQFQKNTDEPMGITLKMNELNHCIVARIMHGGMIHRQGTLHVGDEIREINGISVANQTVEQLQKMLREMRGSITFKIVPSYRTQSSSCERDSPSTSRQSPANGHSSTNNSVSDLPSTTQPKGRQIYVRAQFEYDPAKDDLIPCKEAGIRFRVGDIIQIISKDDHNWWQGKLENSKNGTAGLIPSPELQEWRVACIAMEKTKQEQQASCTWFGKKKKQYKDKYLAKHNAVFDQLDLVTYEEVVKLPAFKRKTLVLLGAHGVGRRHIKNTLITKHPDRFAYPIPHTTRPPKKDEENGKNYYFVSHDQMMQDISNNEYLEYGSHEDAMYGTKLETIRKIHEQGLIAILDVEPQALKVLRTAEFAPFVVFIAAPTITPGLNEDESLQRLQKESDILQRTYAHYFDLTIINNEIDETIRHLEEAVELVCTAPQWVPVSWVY

[8] = target: T3, Serine/threonine-protein kinase Chk1 (Homo sapiens) (UniProt O14757); assay: Selectivity interaction (KinomeScan (DiscoverX)) EUB0001619a CHEK1; conditions: at 1 µM
T3 sequence (whole entry): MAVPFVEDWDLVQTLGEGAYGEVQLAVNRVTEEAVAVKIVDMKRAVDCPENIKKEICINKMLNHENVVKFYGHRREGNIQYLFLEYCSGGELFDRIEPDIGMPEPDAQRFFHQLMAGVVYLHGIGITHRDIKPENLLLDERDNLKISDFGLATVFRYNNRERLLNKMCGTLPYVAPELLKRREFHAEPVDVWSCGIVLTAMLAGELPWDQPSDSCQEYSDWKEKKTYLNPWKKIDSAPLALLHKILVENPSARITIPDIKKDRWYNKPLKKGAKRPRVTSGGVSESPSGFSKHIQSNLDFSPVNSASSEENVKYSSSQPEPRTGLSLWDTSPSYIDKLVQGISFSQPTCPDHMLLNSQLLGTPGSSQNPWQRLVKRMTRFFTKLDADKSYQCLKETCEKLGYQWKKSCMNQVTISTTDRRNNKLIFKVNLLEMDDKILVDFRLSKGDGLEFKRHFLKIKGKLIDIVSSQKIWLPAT

[9] = target: Serine/threonine-protein kinase SMG1 (Homo sapiens) (UniProt Q96Q15); assay: Selectivity interaction (Kinase panel (KiNativ target engagement assay in Jurkat cells)) EUB0001635a SMG1; format: cell-based; conditions: Selectivity number of off-targets 0.0, Selectivity number of targets 233.0, Source Knowledge https://www.sciencedirect.com/science/article/pii/S2451945619300674?via%3Dihub, at 1 µM
[10] = target: Death-associated protein kinase 1 (Homo sapiens, UniProt P53355); assay: Selectivity interaction (Kinase panel (DSF assay)) EUB0001558a DAPK1

Sequence of Serine/threonine-protein kinase SMG1 (Homo sapiens) (Q96Q15 whole entry): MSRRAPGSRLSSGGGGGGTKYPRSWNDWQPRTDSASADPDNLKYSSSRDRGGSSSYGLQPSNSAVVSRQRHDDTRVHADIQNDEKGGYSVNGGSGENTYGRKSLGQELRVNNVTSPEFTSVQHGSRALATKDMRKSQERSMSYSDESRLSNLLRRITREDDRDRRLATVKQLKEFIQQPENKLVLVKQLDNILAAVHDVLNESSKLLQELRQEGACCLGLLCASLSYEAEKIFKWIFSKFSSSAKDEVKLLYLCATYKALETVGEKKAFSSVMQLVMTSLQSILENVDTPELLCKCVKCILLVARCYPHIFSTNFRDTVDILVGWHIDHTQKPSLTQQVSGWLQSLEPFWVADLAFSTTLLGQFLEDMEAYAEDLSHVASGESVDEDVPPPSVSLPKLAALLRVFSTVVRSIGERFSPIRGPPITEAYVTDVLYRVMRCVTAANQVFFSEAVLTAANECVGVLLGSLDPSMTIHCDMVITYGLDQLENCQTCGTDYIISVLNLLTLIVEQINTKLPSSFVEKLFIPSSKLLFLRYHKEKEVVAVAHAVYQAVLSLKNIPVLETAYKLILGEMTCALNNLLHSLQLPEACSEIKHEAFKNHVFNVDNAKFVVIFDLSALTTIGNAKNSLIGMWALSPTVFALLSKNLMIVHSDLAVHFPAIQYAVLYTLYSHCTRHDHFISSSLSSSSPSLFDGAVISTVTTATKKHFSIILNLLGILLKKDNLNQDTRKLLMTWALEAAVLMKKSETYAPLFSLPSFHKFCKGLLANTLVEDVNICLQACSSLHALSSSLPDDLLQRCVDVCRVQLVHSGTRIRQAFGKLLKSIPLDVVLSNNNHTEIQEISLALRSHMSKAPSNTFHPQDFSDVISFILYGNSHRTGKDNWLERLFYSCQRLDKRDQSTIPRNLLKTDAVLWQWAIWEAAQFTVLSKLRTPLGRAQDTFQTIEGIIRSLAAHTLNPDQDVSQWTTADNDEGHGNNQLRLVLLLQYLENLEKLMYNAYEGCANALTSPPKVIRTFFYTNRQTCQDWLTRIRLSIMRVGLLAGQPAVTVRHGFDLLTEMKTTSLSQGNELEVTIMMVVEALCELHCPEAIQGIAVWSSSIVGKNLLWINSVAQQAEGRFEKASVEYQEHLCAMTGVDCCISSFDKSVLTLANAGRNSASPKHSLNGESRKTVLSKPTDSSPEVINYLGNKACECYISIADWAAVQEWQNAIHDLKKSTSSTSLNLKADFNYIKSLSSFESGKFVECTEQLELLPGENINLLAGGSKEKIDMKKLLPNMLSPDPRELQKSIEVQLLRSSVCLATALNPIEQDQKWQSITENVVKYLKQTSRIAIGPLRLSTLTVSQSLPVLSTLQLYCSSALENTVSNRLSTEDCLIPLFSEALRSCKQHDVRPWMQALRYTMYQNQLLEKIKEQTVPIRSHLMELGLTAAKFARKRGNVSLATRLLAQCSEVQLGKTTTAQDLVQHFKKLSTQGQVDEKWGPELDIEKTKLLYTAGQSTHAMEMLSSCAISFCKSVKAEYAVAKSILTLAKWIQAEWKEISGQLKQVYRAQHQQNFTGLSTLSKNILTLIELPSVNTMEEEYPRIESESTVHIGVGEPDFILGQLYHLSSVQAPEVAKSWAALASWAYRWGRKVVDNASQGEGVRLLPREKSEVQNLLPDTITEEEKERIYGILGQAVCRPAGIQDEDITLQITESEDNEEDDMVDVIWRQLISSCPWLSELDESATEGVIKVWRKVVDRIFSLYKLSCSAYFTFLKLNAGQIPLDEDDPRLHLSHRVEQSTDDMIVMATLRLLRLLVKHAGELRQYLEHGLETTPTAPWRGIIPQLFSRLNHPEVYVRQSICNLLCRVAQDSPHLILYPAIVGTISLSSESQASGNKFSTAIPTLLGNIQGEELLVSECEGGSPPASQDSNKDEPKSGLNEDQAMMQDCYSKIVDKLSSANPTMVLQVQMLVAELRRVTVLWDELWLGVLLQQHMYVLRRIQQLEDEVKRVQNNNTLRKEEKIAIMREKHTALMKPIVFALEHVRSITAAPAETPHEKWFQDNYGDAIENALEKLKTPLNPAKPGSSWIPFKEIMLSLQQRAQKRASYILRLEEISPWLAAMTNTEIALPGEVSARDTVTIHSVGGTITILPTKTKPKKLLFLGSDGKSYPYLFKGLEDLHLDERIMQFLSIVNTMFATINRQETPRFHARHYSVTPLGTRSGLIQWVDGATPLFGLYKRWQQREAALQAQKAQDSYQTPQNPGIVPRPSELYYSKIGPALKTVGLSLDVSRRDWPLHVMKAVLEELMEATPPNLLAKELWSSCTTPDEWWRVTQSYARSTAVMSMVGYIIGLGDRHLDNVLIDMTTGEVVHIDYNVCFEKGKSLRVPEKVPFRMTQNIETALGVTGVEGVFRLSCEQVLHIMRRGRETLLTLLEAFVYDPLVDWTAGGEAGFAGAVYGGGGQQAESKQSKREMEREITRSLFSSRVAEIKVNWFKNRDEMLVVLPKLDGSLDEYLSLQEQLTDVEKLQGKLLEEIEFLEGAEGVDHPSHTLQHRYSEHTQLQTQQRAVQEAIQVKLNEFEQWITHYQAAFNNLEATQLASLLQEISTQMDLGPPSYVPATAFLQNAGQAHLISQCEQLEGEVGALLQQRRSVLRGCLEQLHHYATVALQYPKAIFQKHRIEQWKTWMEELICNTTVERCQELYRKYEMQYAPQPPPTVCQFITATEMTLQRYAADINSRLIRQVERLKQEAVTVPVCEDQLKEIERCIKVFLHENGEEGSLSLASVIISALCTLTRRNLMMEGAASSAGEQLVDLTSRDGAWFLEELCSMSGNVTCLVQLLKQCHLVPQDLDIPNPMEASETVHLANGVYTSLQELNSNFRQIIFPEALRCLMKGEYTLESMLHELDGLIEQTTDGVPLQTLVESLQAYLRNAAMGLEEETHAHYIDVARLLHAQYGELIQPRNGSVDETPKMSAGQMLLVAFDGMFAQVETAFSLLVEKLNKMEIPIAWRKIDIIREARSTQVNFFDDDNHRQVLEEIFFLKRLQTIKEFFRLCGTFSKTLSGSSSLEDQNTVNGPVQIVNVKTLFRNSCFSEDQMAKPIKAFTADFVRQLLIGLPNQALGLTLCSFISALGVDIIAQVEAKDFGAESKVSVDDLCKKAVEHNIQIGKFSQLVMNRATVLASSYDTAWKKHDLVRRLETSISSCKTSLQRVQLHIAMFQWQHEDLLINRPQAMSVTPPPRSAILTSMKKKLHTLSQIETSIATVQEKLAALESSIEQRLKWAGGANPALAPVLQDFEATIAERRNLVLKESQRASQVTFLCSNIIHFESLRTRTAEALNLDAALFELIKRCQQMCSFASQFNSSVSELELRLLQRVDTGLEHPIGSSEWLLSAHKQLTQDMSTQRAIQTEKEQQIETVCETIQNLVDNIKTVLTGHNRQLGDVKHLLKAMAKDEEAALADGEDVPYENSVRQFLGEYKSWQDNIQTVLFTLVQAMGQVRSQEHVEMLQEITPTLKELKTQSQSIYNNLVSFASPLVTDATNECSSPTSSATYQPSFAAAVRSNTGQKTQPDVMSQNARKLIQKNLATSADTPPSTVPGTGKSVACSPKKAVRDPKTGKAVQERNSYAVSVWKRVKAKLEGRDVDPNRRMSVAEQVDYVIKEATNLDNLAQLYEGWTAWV
Sequence of Cyclin-dependent kinase 7 (P50613 whole entry): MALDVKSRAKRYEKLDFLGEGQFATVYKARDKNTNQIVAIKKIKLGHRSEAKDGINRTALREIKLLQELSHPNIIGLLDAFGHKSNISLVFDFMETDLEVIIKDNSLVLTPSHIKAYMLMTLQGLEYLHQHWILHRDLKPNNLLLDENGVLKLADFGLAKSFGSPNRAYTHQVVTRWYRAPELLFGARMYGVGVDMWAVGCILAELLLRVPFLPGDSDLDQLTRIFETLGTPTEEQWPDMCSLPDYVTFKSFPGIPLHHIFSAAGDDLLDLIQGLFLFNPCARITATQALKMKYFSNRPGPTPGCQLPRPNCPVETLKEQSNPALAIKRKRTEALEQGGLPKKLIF
Sequence of Dual specificity mitogen-activated protein kinase kinase 1 (Q02750 whole entry): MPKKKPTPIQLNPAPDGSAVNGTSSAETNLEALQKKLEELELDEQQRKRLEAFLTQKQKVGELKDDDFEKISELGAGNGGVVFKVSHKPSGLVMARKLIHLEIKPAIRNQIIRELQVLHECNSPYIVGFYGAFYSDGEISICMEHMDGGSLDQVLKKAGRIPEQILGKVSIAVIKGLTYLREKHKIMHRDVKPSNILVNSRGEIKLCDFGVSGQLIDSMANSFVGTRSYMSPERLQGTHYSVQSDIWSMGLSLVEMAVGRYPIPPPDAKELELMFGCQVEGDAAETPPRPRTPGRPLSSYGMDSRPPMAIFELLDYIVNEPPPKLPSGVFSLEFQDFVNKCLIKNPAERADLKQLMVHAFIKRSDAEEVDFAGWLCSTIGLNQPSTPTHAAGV
Sequence of Activin receptor type-1-like (Homo sapiens) (P37023 whole entry): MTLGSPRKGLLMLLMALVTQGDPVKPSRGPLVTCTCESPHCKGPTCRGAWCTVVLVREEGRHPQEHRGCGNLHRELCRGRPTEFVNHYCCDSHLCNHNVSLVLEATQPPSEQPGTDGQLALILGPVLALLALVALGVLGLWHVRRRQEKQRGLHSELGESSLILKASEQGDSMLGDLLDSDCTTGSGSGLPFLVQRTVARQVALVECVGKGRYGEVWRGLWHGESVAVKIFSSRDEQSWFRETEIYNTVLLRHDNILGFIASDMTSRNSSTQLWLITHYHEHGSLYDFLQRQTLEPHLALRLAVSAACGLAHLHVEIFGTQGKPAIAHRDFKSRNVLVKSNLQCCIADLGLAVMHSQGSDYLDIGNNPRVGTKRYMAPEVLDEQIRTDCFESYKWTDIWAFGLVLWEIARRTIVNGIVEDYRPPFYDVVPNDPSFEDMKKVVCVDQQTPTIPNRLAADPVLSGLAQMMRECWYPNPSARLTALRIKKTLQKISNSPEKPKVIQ

Cc1cc([C@@H](C)Nc2ccccc2C(=O)O)c2nc(N3CCOCC3)cc(=O)n2c1 [AZD-6482]
% of control [1]: 74%

Cc1cnc(Nc2ccc(F)cc2Cl)nc1-c1c[nH]c(C(=O)N[C@H](CO)c2cccc(Cl)c2)c1
% of inhibition [2]: 0%

COc1cc(Nc2nc(C)cc(-c3cnn4nc(OC)ccc34)n2)cc(C(F)(F)F)c1
% of control [3]: 80% | % of control [4]: 73%

Cn1cc(-n2cnc3c(NCc4nc5cc(Cl)c(Cl)cc5[nH]4)nc(N4CCOCC4)nc32)cn1
% of inhibition [5]: -13%

Cc1cc(F)c(C(=O)Nc2cccc(-c3nncn3C(C)C)n2)cc1-n1cnc(C2CC2)c1
% of control [6]: 100%

C=CC(=O)Nc1cc(-n2c(=O)ccc3cnc4ccc(-c5ccc(NS(C)(=O)=O)cc5)cc4c32)ccc1C
% of control ([7]; at 1 µM): 61% | % of control ([7]; at 10 µM): 100%

N#Cc1cccc(-c2c[nH]c3ncnc(N4CCOCC4)c23)c1
% of control [8]: 94%

C=CC(=O)Nc1ccc(C(=O)Nc2[nH]nc3c2CN(C(=O)N[C@H](CN(C)C)c2ccccc2)C3(C)C)cc1
% of engagement [9]: -6.6%

CC(C)(O)[C@H](F)CN1Cc2cc(NC(=O)c3cnn4cccnc34)c(N3CCOCC3)cc2C1=O
dTM [10]: 0.1 K
